We go through 2 compounds from patent US8541343B2, “Chemical compounds and their use as pesticides” (Syngenta Crop Protection, Inc., priority 2009, dated 2013).

As usually defined, the melting point is the temperature, or range, at which the solid turns liquid. In turn, `CCOC(=O)OC1=C(c2c(C)cc(C)cc2C)C(=O)N(N(C)C)C12CCN(N(C)C)CC2` [Compound A2, Carbonic acid 1,8-bis-dimethylamino-2-oxo-3-(2,4,6-trimethyl-phenyl)-1,8-diaza-spiro[4.5]dec-3-en-4-yl ester ethyl ester] displayed a melting point of 105 °C.

`Cc1cc(C)c(C2C(=O)N(N(C)C)C3(CCN(N(C)C)CC3)C2=O)c(C)c1` (centres unmarked) [Compound A1, 1,8-Bis-dimethylamino-3-(2,4,6-trimethyl-phenyl)-1,8-diaza-spiro[4.5]decane-2,4-dione] registered a melting point of 80 to 85 °C.
